Results reported in publication PMC6217055 (Theranostics, 2018).

How the values were obtained:
4T1-Fluc tumour = experiment: 4T1-Fluc BALB/c homograft mouse model; assay type: in vivo; details: daily oral; vorinostat, abemaciclib 60 mg/kg
[1] = test system: MDA-MB-468, MDA-MB-231, SK-OV-3 and OVCAR-5 cells; experiment: cell cycle assay; assay type: cell-based, human; details: 48 h, quarter, half of IC50 and IC50
[2] = test system: six solid tumour cell lines; experiment: CCK-8 cytotoxicity, summary over six cell lines; assay type: cell-based; details: read-out: IC50 values in these cell lines

SMILES | tumour volume (4T1-Fluc tumour) | cell cycle distribution (G1-phase arrest) [1] | IC50 [2]
O=C(CCCCCCC(=O)Nc1ccccc1)NO [Vorinostat] | barely impacted | did not induce G1 to S phase arrest | –
CCN1CCN(Cc2ccc(Nc3ncc(F)c(-c4cc(F)c5nc(C)n(C(C)C)c5c4)n3)nc2)CC1 [Abemaciclib] | decreased only slightly | did not induce G1 to S phase arrest | > 1000 nM
